Results taken from US20160169896A1, “Methods for Predicting and Treating Bone Metastases in Prostate Cancer Patients” (INSERM (institut NAtional de la Sante et de la Recherche …, priority 2012, published 2016).

Test system: PC3 cells
Test: Real-time PCR of factor expression in PC3 cells treated with the ERRα inverse agonist XCT790 versus DMSO
Type: cell-based, human
Conditions: XCT790 5 10^−7M, 24 hours, compared to DMSO control
Experimental: PC3 cell line was obtained from the American Type Culture Collection (ATCC, Manassas, Va., USA). PC3 cells are routinely cultured in F12K nutrient mixture and DMEM medium (Gibco/Invitrogen; Carlsbad, Calif., USA) respectively supplemented with 10% (v/v) fetal bovine serum (FBS; Perbio/Thermo scientific; Rockford, Ill., USA) and 1% (v/v) penicillin/streptomycin (Invitrogen; Carlsbad, Calif., USA) at 37° C. in a 5% CO2 incubator.
Human ERRα cDNA (WT) was obtained from mRNA extracted from BO2-FRT cells, by using RT-PCR with specific primers ((NM_004451.3) (Fradet et al, 2011). Amplimers were sequenced for verification. The pcDNA5/ERRα-WT (WT) and empty pcDNA5 (used as control (CT)) constructs were transfected using Transfast (Promega). For clonal selection, cells were cultured for 4 weeks in the presence of puromycin (1 μg/ml PC3) (Invitrogen). XCT790, an inverse agonist of ERRα was tested in vitro on PC3 cells at 5.10^−7M compare to DMSO for 24 h.
Total RNA was extracted with Trizol reagent (Sigma) from PC3 cells, PC3 tumors, MC3T3-E1 cells. Samples of total RNA (2 μg) were reverse-transcribed using random hexamer (Promega) and the first strand synthesis kit of Superscript™ II (Invitrogen). Real-time RT-PCR was performed on a Roche Lightcycler Module (Roche) with primers specific for human and mouse. Real-time RT-PCR was carried out by using (SYBR Green; Qiagen,) on the LightCycler system on (Roche) according to the manufacturer's instructions with an initial step for 10 min at 95° C. followed by 40 cycles of 20 sec at 95° C., 10 sec at Tm (see Tables 1-2) and 10 sec at 72° C. We verified that a single peak was obtained for each product using the Roche software. Amplimers were all normalized to corresponding L32 values. Data analysis was carried out using the comparative Ct method: in real-time each replicate average genes CT was normalized to the average CT of L32 by subtracting the average CT of L32 from each replicate to give the ACT. Results are expressed as Log^-2 ΔΔCT with ΔΔCT equivalent to the ΔCT of the genes in PC3 (clone, XCT), tumors or treated MC3T3-E1 subtracting to the ACT of the endogenous control (empty vectors control for clones or tumors, DMSO for the XCT experiment and empty vectors control conditioned media treated MC3T3-E1 respectively).
To confirm the regulation of the factors identified in PC3 over-expressing ERRα, we treat PC3 cells by the inverse agonist XCT790 (5 10^−7M) for 24 hours. XCT790 is able to block the interaction between ERRα and his co-activators PGC1a and b that will have as a consequence the inhibition of ERRα transcriptional activity.

## COc1cc(/C=C(\C#N)C(=O)Nc2nnc(C(F)(F)F)s2)ccc1OCc1ccc(C(F)(F)F)cc1C(F)(F)F [XCT790, (2E)-3-(4-{[2,4-bis(trifluoromethyl)benzyl]oxy}-3-methoxyphenyl)-2-cyano-N-[5-(trifluoromethyl)-1,3,4-thiadiazol-2-yl]acrylamide]
  CK (cathepsin K) expression (real-time PCR): no CK were found statistically down-regulated
  ET1 expression (real-time PCR): identified as direct ERRα/PGC1 target genes
  MCP1 expression (real-time PCR): statistically down-regulated
  OPG expression (real-time PCR): statistically down-regulated
  Runx2 expression (real-time PCR): statistically down-regulated
  Wnt3a expression (real-time PCR): identified as direct ERRα/PGC1 target genes
  Wnt5a expression (real-time PCR): identified as direct ERRα/PGC1 target genes
